{
  "source": "patent US4399067A",
  "key": {"[1]": {"tested_on": "Bacillus subtilis ATCC 6633", "assay": "Agar-plate disc-diffusion test", "type": "cell-based", "conditions": "compound at 1 mg/ml, 7-mm disc, 24-48 hours at 25-37° C.", "description": "| ^b Grown on minimal nutrient agar"}, "[2]": {"tested_on": "Staphylococcus aureus X1.1", "type": "cell-based", "conditions": "agar-dilution", "description": "(§1) The results of the antibacterial testing of a representative compound of formula 1, using the standard agar-dilution test, are summarized in Table II."}, "[3]": {"tested_on": "Staphylococcus epidermidis EPI1", "type": "cell-based", "conditions": "agar-dilution", "description": "as §1"}, "[4]": {"tested_on": "Staphylococcus epidermidis EPI2", "type": "cell-based", "conditions": "agar-dilution", "description": "as §1"}, "Streptococcus Group 9960": {"tested_on": "Streptococcus Group 9960", "type": "cell-based", "conditions": "agar-dilution", "description": "as §1"}, "[5]": {"tested_on": "Streptococcus Group D X66", "type": "cell-based", "conditions": "agar-dilution", "description": "as §1"}, "[6]": {"tested_on": "Streptococcus pyogenes C203", "type": "cell-based", "conditions": "agar-dilution", "description": "as §1"}, "[7]": {"tested_on": "Staphylococcus aureus V41", "type": "cell-based", "conditions": "agar-dilution; penicillin-resistant strain", "description": "as §1\n^b Pencillinresistant strain"}, "[8]": {"tested_on": "Staphylococcus aureus X400", "type": "cell-based", "conditions": "agar-dilution; methicillin-resistant strain", "description": "as §1\n^c Methicillinresistant-strain"}, "Staphylococcus aureus": {"tested_on": "Staphylococcus aureus", "assay": "In vivo activity against experimental bacterial infection in mice", "conditions": "two doses, dose protecting fifty percent of the test animals"}, "Streptococcus pyogenes": {"tested_on": "Streptococcus pyogenes", "assay": "In vivo activity against experimental bacterial infection in mice", "conditions": "two doses, dose protecting fifty percent of the test animals"}, "[9]": {"assay": "Acute toxicity, intravenous, mice", "conditions": "mouse, in vivo, administered intravenously to mice"}},
  "data": [
    {"smiles": "CCCCCCCCCCCCOc1ccc(C(=O)N[C@@H](Cc2c[nH]c3ccccc23)C(=O)N[C@@H](CC(N)=O)C(=O)N[C@@H](CC(=O)O)C(=O)N[C@@H]2C(=O)NCC(=O)N[C@@H](CCCNC(=O)OC(C)(C)C)C(=O)N[C@@H](CC(=O)O)C(=O)N[C@H](C)C(=O)N[C@@H](CC(=O)O)C(=O)NCC(=O)N[C@H](CO)C(=O)N[C@@H]([C@H](C)CC(=O)O)C(=O)N[C@@H](CC(=O)c3ccccc3N)C(=O)O[C@@H]2C)cc1", "note": "[Example 1]", "values": [
      {"measurement": "Size of Zone of Inhibition, B. subtilis ATCC 6633 grown on minimal nutrient agar", "setting": "[1]", "result": 22, "unit": "mm"}
    ]},
    {"smiles": "CCCCCCCCCCCCOc1ccc(C(=O)N[C@@H](Cc2c[nH]c3ccccc23)C(=O)N[C@@H](CC(N)=O)C(=O)N[C@@H](CC(=O)O)C(=O)N[C@@H]2C(=O)NCC(=O)N[C@@H](CCCN)C(=O)N[C@@H](CC(=O)O)C(=O)N[C@H](C)C(=O)N[C@@H](CC(=O)O)C(=O)NCC(=O)N[C@H](CO)C(=O)N[C@@H]([C@H](C)CC(=O)O)C(=O)N[C@@H](CC(=O)c3ccccc3N)C(=O)O[C@@H]2C)cc1", "note": "[Example 2, NTrp -p-(n-dodecyloxy)benzoyl-A-21978C Nucleus]", "values": [
      {"measurement": "Size of Zone of Inhibition, B. subtilis ATCC 6633 grown on minimal nutrient agar", "setting": "[1]", "result": 20, "unit": "mm"},
      {"measurement": "MIC, Staphylococcus aureus X1.1", "setting": "[2]", "result": 1, "unit": "µg/mL"},
      {"measurement": "MIC, Staphylococcus epidermidis EPI1", "setting": "[3]", "result": 4, "unit": "µg/mL"},
      {"measurement": "MIC, Staphylococcus epidermidis EPI2", "setting": "[4]", "result": 2, "unit": "µg/mL"},
      {"measurement": "MIC, Streptococcus Group 9960", "setting": "Streptococcus Group 9960", "result": 1, "unit": "µg/mL"},
      {"measurement": "MIC, Streptococcus Group D X66", "setting": "[5]", "result": 2, "unit": "µg/mL"},
      {"measurement": "MIC, Streptococcus pyogenes C203", "setting": "[6]", "result": 0.25, "unit": "µg/mL"},
      {"measurement": "MIC, Staphylococcus aureus V41", "setting": "[7]", "result": 1, "unit": "µg/mL"},
      {"measurement": "MIC, Staphylococcus aureus X400", "setting": "[8]", "result": 2, "unit": "µg/mL"},
      {"measurement": "ED50, Staphylococcus aureus, Subcutaneous", "setting": "Staphylococcus aureus", "result": 3.35, "unit": "mg/kg × 2"},
      {"measurement": "ED50, Streptococcus pyogenes, Oral", "setting": "Streptococcus pyogenes; oral", "result": "> 200", "unit": "mg/kg × 2"},
      {"measurement": "ED50, Streptococcus pyogenes, Subcutaneous", "setting": "Streptococcus pyogenes; subcutaneous", "result": 0.31, "unit": "mg/kg × 2"},
      {"measurement": "LD50", "setting": "[9]", "result": 67.5, "unit": "mg/kg"}
    ]}
  ]
}
